Data reported in PubChem BioAssay (NCI).
“And” between values parts separate entries of the source, which are not always exact repeats. Equal entries are not always repeated.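 Five compound concentrations were applied to cells in 96-well plates for 48 hours; endpoints were derived by simple linear interpolation of the resulting dose-response curve. Here, GI50 denotes the concentration required for 50% inhibition of growth. At the TGI there is no net growth.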

What was measured:
Assay in all cases: inhibition of tumour cell growth, NCI panel, 48 h
[1] = tested on: 786-0 renal
[2] = tested on: A549 NSCLC
[3] = tested on: ACHN renal
[4] = tested on: HL-60(TB) leukemia
[5] = tested on: MCF7 breast
[6] = tested on: MDA-MB-231 breast
[7] = tested on: NCI-H460 lung
[8] = tested on: NCI-H522 lung
[9] = tested on: OVCAR-3 ovarian
[10] = tested on: UO-31 renal

Row | SMILES | GI50 [1] | TGI [1] | GI50 [2] | TGI [2] | GI50 [3] | TGI [3] | GI50 [4] | TGI [4] | GI50 [5] | TGI [5] | GI50 [6] | TGI [6] | GI50 [7] | TGI [7] | GI50 [8] | TGI [8] | GI50 [9] | TGI [9] | GI50 [10] | TGI [10]
1 | O=C(Nc1ccc(Cl)cc1)c1cc2cc(F)ccc2cc1O | 2.9 µM | > 100 µM | 2.5 µM | > 100 µM | 1.67 µM | 7.07 µM | 1.22 µM | 6.78 µM | 1.54 µM | 6.51 µM | 1.55 µM | 5.29 µM | 0.882 µM | > 100 µM | 0.359 µM | 3.03 µM | 1.09 µM | > 100 µM | 1.08 µM | > 100 µM
2 | C[C@@H](Oc1cc(NS(=O)(=O)N2CCC2)nc(SCc2cccc(F)c2F)n1)[C@@H](O)CO | > 100 µM | > 100 µM | > 100 µM | > 100 µM | > 100 µM | > 100 µM | > 100 µM | > 100 µM | > 100 µM | > 100 µM | > 100 µM | > 100 µM | > 100 µM | > 100 µM | > 100 µM | > 100 µM | > 100 µM | > 100 µM | > 100 µM | > 100 µM
3 | N=C1C(c2nc3ccccc3s2)=C(O)CN1c1ccc(Cl)cc1Cl | 16.9 µM | 48.2 µM | 11.6 µM | 35.6 µM | 13 µM | 28.8 µM | 41.9 µM | > 100 µM | 41.2 µM | > 100 µM | 17.1 µM | 42.9 µM | 33.4 µM | > 100 µM | 11.2 µM | 35.2 µM | 18.7 µM | > 100 µM | 1.63 µM | 3.62 µM
4 | C/C=C1\C(=O)O[C@@H]2C1C[C@@H]1O[C@H]2[C@H](C)CCC/C(C)=C/CC[C@@]1(C)O (some centres undefined) | 3.21 µM | 14.2 µM | 10.6 µM | 22.5 µM | 2.77 µM | 14.5 µM | 5.55 µM | > 100 µM | 2.33 µM | 6.1 µM | 8.36 µM | 21.7 µM | 4.81 µM | 25.7 µM | 2.29 µM | 7.06 µM | 1.48 µM | 11.9 µM | 3.02 µM | 10.4 µM
5 | COC1CC2C=CC3C4OC2(/C(C)=C/C(C)C(C(C)O)OC1=O)C3C(O)C(C)C4OC(=O)c1ccc[nH]1 (centres undefined) | – | > 100 µM | – | > 100 µM | – | > 100 µM | – | 63.3 µM | – | > 100 µM | – | > 100 µM | – | > 100 µM | – | > 100 µM | – | > 100 µM | – | > 100 µM
6 | O=C1/C(=C/c2ccccc2Br)COc2ccc(O)c(O)c21 | 1.55 µM | 4.16 µM | 2.17 µM | 10.2 µM | 1.32 µM | 3.09 µM | 0.379 µM | 2.78 µM | 0.583 µM | 6.02 µM | 1.42 µM | 6.17 µM | 2.13 µM | 5.64 µM | 0.196 µM | 0.494 µM | 0.557 µM | 1.83 µM | 0.804 µM | 2.07 µM
7 | O=S(=O)(NCCCNc1cc(-c2cn(-c3ccccc3)nc2-c2cccc(O)c2)ccn1)c1cccc2ccccc12 | 1.59 µM | 3.57 µM | 3.5 µM | > 100 µM | 3.7 µM | > 100 µM | 2.7 µM | 7.2 µM | 1.96 µM | 5.45 µM | 1.86 µM | 6.52 µM | 2.89 µM | 10.4 µM | 2.32 µM | 5.66 µM | 5.62 µM | > 100 µM | 2.1 µM | 9.32 µM
8 | NCC1OC(n2cnc3c(=O)[nH]c(N)nc32)C(O)C1O (centres undefined) | – | > 100 µM | – | > 100 µM | – | > 100 µM | – | > 100 µM | – | > 100 µM | – | > 100 µM | – | > 100 µM | – | > 100 µM | – | > 100 µM | – | > 100 µM
9 | N#Cc1nn(C2OC(COC(=O)c3ccccc3)C(OC(=O)c3ccccc3)C2OC(=O)c2ccccc2)c2nc[nH]c(=O)c12 (centres undefined) | – | > 100 µM | – | > 100 µM | – | > 100 µM | – | 83.4 µM | – | > 100 µM | – | > 100 µM | – | > 100 µM | – | > 100 µM | – | > 100 µM | – | > 100 µM
10 | Cc1cccc2c1NC(=O)[C@@]21[C@H](C(=O)c2ccccc2)[C@]2(C(=O)Nc3ccccc32)[C@H]2CCCN21 | 36 µM | > 100 µM | 58.9 µM | > 100 µM | 19.6 µM | 73 µM | 56.8 µM | > 100 µM | 14.3 µM | > 100 µM | 21.3 µM | > 100 µM | 24.6 µM | > 100 µM | 29.2 µM | > 100 µM | 15.5 µM | > 100 µM | 17.6 µM | > 100 µM
11 | O=c1ccccc(-c2ccc(-c3ccco3)cc2)c1O | 0.834 µM | 14.7 µM | 1.39 µM | 47.5 µM | 0.437 µM | 12 µM | 0.441 µM | 2.69 µM | 0.412 µM | 29.8 µM | 0.704 µM | 44.4 µM | 0.408 µM | 10.8 µM | 4.07 µM | 45.8 µM | 0.415 µM | 26.3 µM | 0.598 µM | 8.42 µM
12 | O=C1CCC2=C3C4CCCCC4C(=O)C4CCCC(OC2C1)C34 (centres undefined) | 2.51 µM | > 29.8 µM | 2.57 µM | 13.2 µM | 0.382 µM | – | 0.17 µM | 0.998 µM | 1.21 µM | > 100 µM | 1.47 µM | > 27.6 µM | 0.87 µM | 4.57 µM | 0.434 µM | 1.27 µM | 0.428 µM | 2.73 µM | 0.487 µM | 3.88 µM
13 | COc1cc2c(Nc3ccc(Br)cc3F)ncnc2cc1OCC1CCN(C)CC1 | 2.96 µM and 3.01 µM | 13.1 µM and > 10 µM | 3.32 µM and 4.63 µM | 15.9 µM and > 10 µM | 0.471 µM and 0.556 µM | 11.4 µM and > 10 µM | 2.65 µM and 3.14 µM | 7.56 µM and > 10 µM | 2.52 µM and 4.67 µM | 16 µM and > 10 µM | 2.19 µM and 3.62 µM | 8.29 µM and > 10 µM | 4.69 µM and 9.98 µM | 17 µM and > 10 µM | 2 µM and 1.28 µM | 7.31 µM and > 10 µM | 1.65 µM and 2.58 µM | 14.2 µM and > 10 µM | 0.573 µM and 0.479 µM | 2.5 µM and 5.78 µM
14 | Cc1ccc2c(N/N=C\c3ccco3)cc(C)nc2n1 | 2.25 µM | 6.11 µM | 4.37 µM | 18.5 µM | 3.37 µM | 12.4 µM | 1.99 µM | 4.07 µM | 3.28 µM | 15.5 µM | 3.53 µM | 13.5 µM | 3.24 µM | 11.8 µM | 2.92 µM | 9.84 µM | 2.81 µM | 7.49 µM | 2 µM | 5.24 µM
15 | COc1c(B(O)O)cccc1-c1nc2c(F)cc3[nH]ncc3c2c2c1CCCC2 | 1.33 µM | 17.6 µM | 1.05 µM | > 55.8 µM | 0.845 µM | 42.8 µM | 0.436 µM | 11.3 µM | 1.31 µM | 13.5 µM | 0.0423 µM | 35.9 µM | 1.79 µM | 11.9 µM | 1.98 µM | 13.1 µM | 2.87 µM | 19.3 µM | 0.405 µM | 19.4 µM
